From patent US10131664B2 (Celgene Quanticel Research, Inc., priority 2013, dated 2018)
Counter-ions that a name gives are not always drawn. Like-named read-outs stand apart in the source and are kept apart here.

Experiments:
THP-1 (AML) cells = experiment: LSD1 CD11b cellular assay (flow cytometry); type: cell-based; details: Homo sapiens, read-out: Cellular IC50
Outline: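 THP-1 AML cells treated with serially diluted compound (0.2% DMSO final) for 4 days at 37 °C, 5% CO2. CD11b expression measured by flow cytometry with DAPI staining; IC50 derived from percent CD11b-positive cells versus inhibitor concentration.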

full-length human LSD1 = full-length human LSD1 (Homo sapiens (Human), UniProt O60341); experiment: In vitro enzyme inhibition assay LSD-1 (TR-FRET); type: biochemical
Procedure: This assay determines the ability of a test compound to inhibit LSD1 demethylase activity.
The enzymatic assay of LSD1 activity is based on Time Resolved-Fluorescence Resonance Energy Transfer (TR-FRET) detection.
The ability of the compounds disclosed herein to inhibit LSD1 activity was quantified and the respective IC50 value was determined. Table 5 provides the IC50 values of various substituted heterocyclic compounds disclosed herein.

[1] = 96 h, CD11b expression in THP-1 (AML) cells, flow cytometry, 4 days incubation
[2] = TR-FRET, 0.1 nM LSD1, 50 nM H3K4me1-biotin peptide, 2 μM FAD, pH7.3, read-out: LSD1 IC50

With `Cn1cnc2cc(-c3cnc(N4CCC(N)CC4)nc3-c3ccc(C#N)c(F)c3)c(F)c(F)c21` [Example 132, 4-[2-(4-aminopiperidin-1-yl)-5-(6,7-difluoro-1-methylbenzimidazol-5-yl)pyrimidin-4-yl]-2-fluorobenzonitrile] the IC50 (THP-1 (AML) cells; [1]) was under 100 nM and the IC50 (full-length human LSD1; [2]) was under 100 nM.

For `Cn1cc2cc(-c3cnc(N4CCNCC4)nc3-c3ccc(C#N)c(F)c3)ccc2n1` [Example 109, 2-fluoro-4-[5-(2-methylindazol-5-yl)-2-piperazin-1-ylpyrimidin-4-yl]benzonitrile], the IC50 (THP-1 (AML) cells; [1]) was 100 to 1000 nM and the IC50 (full-length human LSD1; [2]) was under 100 nM.

For `CNc1nc(N2CCC(N)CC2)nc(-c2ccc(C#N)c(F)c2)c1-c1cnc(N(C)C)nc1` [Example 168, 4-[2-(4-aminopiperidin-1-yl)-5-[2-(dimethylamino)pyrimidin-5-yl]-6-(methylamino)pyrimidin-4-yl]-2-fluorobenzonitrile], the IC50 (THP-1 (AML) cells; [1]) was under 100 nM and the IC50 (full-length human LSD1; [2]) was under 100 nM.

`N#Cc1ccc(-c2nc(N3CCC4NCCC4C3)ncc2-c2cnn(CC(F)(F)F)c2)cc1` (stereo not shown) [Example 63, 4-[2-{1,2,3,3a,4,6,7,7a-octahydropyrrolo[3,2-c]pyridin-5-yl)-5-[1-(2,2,2-trifluoroethyl)pyrazol-4-yl]pyrimidin-4-yl]benzonitrile] gave an IC50 (THP-1 (AML) cells; [1]) of 100 to 1000 nM and an IC50 (full-length human LSD1; [2]) of under 100 nM.

Molecule `Cn1cc2cc(-c3cnc(N4CCC(N)C4)nc3-c3ccc(C#N)c(F)c3)ccc2n1` (stereo not shown) [Example 143, 4-[2-(3-aminopyrrolidin-1-yl)-5-(2-methylindazol-5-yl)pyrimidin-4-yl]-2-fluorobenzonitrile] has an IC50 (THP-1 (AML) cells; [1]) of under 100 nM and an IC50 (full-length human LSD1; [2]) of under 100 nM.

`Cc1ccc(-c2nc3ccn(C[C@H]4CCNC4)c3cc2-c2ccc(C#N)cc2)cc1` [Example 3, 4-[5-(4-methylphenyl)-1-[[(3S)-pyrrolidin-3-yl]methyl]pyrrolo[3,2-b]pyridin-6-yl]benzonitrile] showed an IC50 (THP-1 (AML) cells; [1]) of under 100 nM and an IC50 (full-length human LSD1; [2]) of under 100 nM.

Molecule `Cc1ccc(-c2cnc(N3CCC4CNCC4CC3)nc2-c2ccc(C#N)cc2)cn1` (stereo not shown) [Example 114, 4-[2-(2,3,3a,4,5,7,8,8a-octahydro-1H-pyrrolo[3,4-d]azepin-6-yl)-5-(6-methylpyridin-3-yl)pyrimidin-4-yl]benzonitrile] has an IC50 (THP-1 (AML) cells; [1]) of 100 to 1000 nM and an IC50 (full-length human LSD1; [2]) of under 100 nM.

Work on `N#Cc1ccc(-c2nc(N3CCC(N)CC3)ncc2-c2cnn(CC3CCOC3)c2)cc1` (stereo not shown) [Example 78, 4-[2-(4-aminopiperidin-1-yl)-5-[1-(oxolan-3-ylmethyl)pyrazol-4-yl]pyrimidin-4-yl]benzonitrile] yielded an IC50 (THP-1 (AML) cells; [1]) of 100 to 1000 nM and an IC50 (full-length human LSD1; [2]) of under 100 nM.

Molecule `N#Cc1ccc(-c2cc3c(ccn3C[C@H]3CCNC3)nc2-c2ccc(F)cc2)cc1` [Example 5, 4-[5-(4-fluorophenyl)-1-[[(3S)-pyrrolidin-3-yl]methyl]pyrrolo[3,2-b]pyridin-6-yl]benzonitrile] has an IC50 (THP-1 (AML) cells; [1]) of 1000 to 10000 nM and an IC50 (full-length human LSD1; [2]) of under 100 nM.

`Cn1ncc2cc(-c3cnc(N4CC5CNCC(C5)C4)nc3-c3ccc(C#N)cc3)ccc21` [Example 120, 4-[2-(3,7-diazabicyclo[3.3.1]nonan-3-yl)-5-(1-methylindazol-5-yl)pyrimidin-4-yl]benzonitrile] showed an IC50 (THP-1 (AML) cells; [1]) of 100 to 1000 nM and an IC50 (full-length human LSD1; [2]) of under 100 nM.

`COc1nc(N2CCC(N)CC2)nc(-c2ccc(C#N)cc2)c1-c1ccc(N(C)C)nc1` [Example 155, 4-[2-(4-aminopiperidin-1-yl)-5-[6-(dimethylamino)pyridin-3-yl]-6-methoxypyrimidin-4-yl]benzonitrile] was tested, and the IC50 (THP-1 (AML) cells; [1]) was under 100 nM and the IC50 (full-length human LSD1; [2]) was under 100 nM.

`N#Cc1ccc(-c2cc3c(ccn3C[C@@H]3CCNC3)nc2N2CCOCC2)cc1` [Example 6, 4-[5-morpholin-4-yl-1-[[(3R)-pyrrolidin-3-yl]methyl]pyrrolo[3,2-b]pyridin-6-yl]benzonitrile] was tested, and the IC50 (THP-1 (AML) cells; [1]) was 1000 to 10000 nM and the IC50 (full-length human LSD1; [2]) was 100 to 1000 nM.

`COc1nc(N2CCC(N)CC2)nc(-c2ccc(C#N)c(F)c2)c1-c1cnc2c(c1)nnn2C` [Example 157, 4-[2-(4-aminopiperidin-1-yl)-6-methoxy-5-{3-methyl-3H-[1,2,3]triazolo[4,5-b]pyridin-6-yl}pyrimidin-4-yl]-2-fluorobenzonitrile] gave an IC50 (THP-1 (AML) cells; [1]) of under 100 nM and an IC50 (full-length human LSD1; [2]) of under 100 nM.

`N#Cc1ccc(-c2nc(N3CCC(N)CC3)ncc2C#CC2(O)CCOCC2)cc1F` [Example 97, 4-[2-(4-aminopiperidin-1-yl)-5-[2-(4-hydroxyoxan-4-yl)ethynyl]pyrimidin-4-yl]-2-fluorobenzonitrile] was tested, and the IC50 (THP-1 (AML) cells; [1]) was 100 to 1000 nM and the IC50 (full-length human LSD1; [2]) was under 100 nM.

Molecule `CNc1nc(N2CCC(N)CC2)nc(-c2ccc(C#N)cc2)c1-c1ccc2c(c1)nnn2C` [Example 170] has an IC50 (THP-1 (AML) cells; [1]) of under 100 nM and an IC50 (full-length human LSD1; [2]) of under 100 nM.

`COc1ccc(-c2nc3ccn(C[C@@H]4CCNC4)c3cc2-c2ccc(C#N)c(F)c2)cc1` [Example 52, HCl salt] gave an IC50 (THP-1 (AML) cells; THP-1, 96 h) of under 100 nM and an IC50 (full-length human LSD1; [2]) of under 100 nM.

Work on `CNc1nc(N2CCC(N)CC2)nc(-c2ccc(C#N)c(F)c2)c1-c1cnc2c(cnn2C)c1` [Example 175, 4-[2-(4-aminopiperidin-1-yl)-5-{1-methyl-1H-pyrazolo[3,4-b]pyridin-5-yl}-6-(methylamino)pyrimidin-4-yl]-2-fluorobenzonitrile] yielded an IC50 (THP-1 (AML) cells; [1]) of under 100 nM and an IC50 (full-length human LSD1; [2]) of under 100 nM.

`Cn1ncc2cc(-c3cnc(N4CCC5CNCC5C4)nc3-c3ccc(C#N)cc3)ccc21` (stereo not shown) [Example 115, 4-[2-(1,2,3,3a,4,6,7,7a-octahydropyrrolo[3,4-c]pyridin-5-yl)-5-(1-methylindazol-5-yl)pyrimidin-4-yl]benzonitrile] gave an IC50 (THP-1 (AML) cells; [1]) of under 100 nM and an IC50 (full-length human LSD1; [2]) of under 100 nM.

With `Cc1ccc(-c2cnc(N3CCC4CNCC4C3)nc2-c2ccc(C#N)cc2)cc1` (stereo not shown) [Example 22, 4-[5-(4-methylphenyl)-2-{octahydro-1H-pyrrolo[3,4-c]pyridin-5-yl}pyrimidin-4-yl]benzonitrile] the IC50 (THP-1 (AML) cells; [1]) was under 100 nM and the IC50 (full-length human LSD1; [2]) was under 100 nM.

`Cc1ccc(-c2cc(NC[C@H]3CCNC3)nn2-c2ccc(C#N)cc2)cc1` [Example 44, 4-[5-(4-methylphenyl)-3-[[(3S)-pyrrolidin-3-yl]methylamino]pyrazol-1-yl]benzonitrile] was tested, and the IC50 (THP-1 (AML) cells; [1]) was 100 to 1000 nM and the IC50 (full-length human LSD1; [2]) was under 100 nM.

With `Cc1ccc(-c2nc3ccn(CC4(F)CCNC4)c3cc2-c2ccc(C#N)cc2)cc1` (stereo not shown) [Example 9, 4-[1-[(3-fluoropyrrolidin-3-yl)methyl]-5-(4-methylphenyl)pyrrolo[3,2-b]pyridin-6-yl]benzonitrile] the IC50 (THP-1 (AML) cells; [1]) was 100 to 1000 nM and the IC50 (full-length human LSD1) was under 100 nM.

`CNc1nc(N2CCC(N)CC2)nc(-c2ccc(C#N)cc2)c1-c1cnn(CC(F)(F)F)c1` [Example 174, 4-[2-(4-aminopiperidin-1-yl)-6-(methylamino)-5-[1-(2,2,2-trifluoroethyl)-1H-pyrazol-4-yl]pyrimidin-4-yl]-benzonitrile] was tested, and the IC50 (THP-1 (AML) cells; [1]) was under 100 nM and the IC50 (full-length human LSD1; [2]) was under 100 nM.

In the case of `COc1nc(N2CCC(N)CC2)nc(-c2ccc(C#N)cc2)c1-c1cnc2c(c1)nnn2C` [Example 158, 4-[2-(4-aminopiperidin-1-yl)-6-methoxy-5-{3-methyl-3H-[1,2,3]triazolo[4,5-b]pyridin-6-yl}pyrimidin-4-yl]benzonitrile], the IC50 (THP-1 (AML) cells; [1]) is reported as under 100 nM and the IC50 (full-length human LSD1; [2]) is reported as under 100 nM.

`Cn1cc2cc(-c3cnc(N4CCC(N)CC4)nc3-c3ccc(C#N)c(F)c3)ccc2n1` [Example 59, 4-[2-(4-aminopiperidin-1-yl)-5-(2-methylindazol-5-yl)pyrimidin-4-yl]-2-fluorobenzonitrile] was tested, and the IC50 (THP-1 (AML) cells; [1]) was under 100 nM and the IC50 (full-length human LSD1; [2]) was under 100 nM.

For `CNc1ncc(-c2cnc(N3CCC(N)CC3)nc2-c2ccc(C#N)c(F)c2)cn1` [Example 140, 4-[2-(4-aminopiperidin-1-yl)-5-[2-(methylamino)pyrimidin-5-yl]pyrimidin-4-yl]-2-fluorobenzonitrile], the IC50 (THP-1 (AML) cells; [1]) was 100 to 1000 nM and the IC50 (full-length human LSD1; [2]) was under 100 nM.

`COc1nc(N2CCC(N)CC2)nc(-c2ccc(C#N)c(F)c2)c1-c1ccc2nn(C)cc2c1` [Example 147, 4-[2-(4-aminopiperidin-1-yl)-6-methoxy-5-(2-methyl-2H-indazol-5-yl)pyrimidin-4-yl]-2-fluorobenzonitrile] showed an IC50 (THP-1 (AML) cells; [1]) of under 100 nM and an IC50 (full-length human LSD1; [2]) of under 100 nM.

`Cn1cc2cc(-c3cnc(N4CCC(N)C(F)C4)nc3-c3ccc(C#N)c(F)c3)ccc2n1` (stereo not shown) [Example 112, 4-[2-(4-amino-3-fluoropiperidin-1-yl)-5-(2-methylindazol-5-yl)pyrimidin-4-yl]-2-fluorobenzonitrile] gave an IC50 (THP-1 (AML) cells; [1]) of under 100 nM and an IC50 (full-length human LSD1; [2]) of under 100 nM.

`N#Cc1ccc(-c2nc(N3CCC(N)CC3)ncc2C#CC2(O)CCCC2)cc1` [Example 70, 4-{2-(4-aminopiperidin-1-yl)-5-[2-(1-hydroxycyclopentyl)ethynyl]pyrimidin-4-yl]benzonitrile] was tested, and the IC50 (THP-1 (AML) cells; [1]) was under 100 nM and the IC50 (full-length human LSD1; [2]) was under 100 nM.

Work on `Cn1ncc2cc(-c3cnc(N4CCC(N)CC4)nc3-c3ccc(C#N)cc3)cnc21` [Example 64, 4-[2-(4-aminopiperidin-1-yl)-5-(1-methylpyrazolo[3,4-b]pyridin-5-yl)pyrimidin-4-yl]benzonitrile] yielded an IC50 (THP-1 (AML) cells; [1]) of under 100 nM and an IC50 (full-length human LSD1; [2]) of under 100 nM.

`Cn1cc2cc(-c3cnc(N4CCC(N)CC4)nc3-c3ccc(C#N)cc3)ccc2n1` [Example 128, 4-[2-(4-aminopiperidin-1-yl)-5-(2-methylindazol-5-yl)pyrimidin-4-yl]benzonitrile] gave an IC50 (THP-1 (AML) cells; [1]) of under 100 nM and an IC50 (full-length human LSD1; [2]) of under 100 nM.

`Cn1nnc2cc(-c3cnc(N4CCC(N)CC4)nc3-c3ccc(C#N)c(F)c3)c(F)cc21` [Example 105, 4-[2-(4-aminopiperidin-1-yl)-5-(6-fluoro-1-methylbenzotriazol-5-yl)pyrimidin-4-yl]-2-fluorobenzonitrile] gave an IC50 (THP-1 (AML) cells; [1]) of under 100 nM and an IC50 (full-length human LSD1; [2]) of under 100 nM.

`Cn1cc2cc(-c3cnc(N4CCCNCC4)nc3-c3ccc(C#N)c(F)c3)ccc2n1` [Example 110, 4-[2-(1,4-diazepan-1-yl)-5-(2-methylindazol-5-yl)pyrimidin-4-yl]-2-fluorobenzonitrile] showed an IC50 (THP-1 (AML) cells; [1]) of under 100 nM and an IC50 (full-length human LSD1; [2]) of under 100 nM.
